Results as given in patent US20120122860A1, “SOLID FORMS OF SULFONAMIDES AND AMINO ACIDS” (Plexxikon, Inc., priority 2009, published 2012).

Legend:
[1] = Dog PK study of solid forms and formulations; assay type: in vivo, Beagle dogs
Protocol: Pharmacokinetic properties of various compositions prepared from the complexes may be assessed in male Sprague Dawley rats or male Beagle dogs, and compared to the properties of the free base compound. Rats are dosed daily with compound either by IV injections via surgically implanted jugular catheters or by oral gavage (PO). Each compound is prepared as a 20 mg/mL stock solution in dimethyl sulfoxide, which is further diluted to provide the dosing stock at the desired concentration for the IV or PO formulations. For IV dosing, the dosing stock is diluted into a 1:1:8 mixture of Solutol®:ethanol:water. For PO dosing, the dosing stock is diluted into 1% methylcellulose. In a cassette format, 5 compounds are diluted to 0.5 mg/mL each for IV dosing and 0.4 mg/mL each for PO dosing and dosed at 1 mg/kg (2 mL/kg) or 2 mg/kg (5 mL/kg), respectively. For IV dosed animals, tail vein blood samples are collected with lithium heparin anticoagulant at 5, 15, 30, and 60 minutes and 4, 8, and 24 hours post dosing each day. For PO dosed animals, tail vein blood samples are collected with lithium heparin anticoagulant at 30 minutes, 1, 2, 4, 8 and 24 hours post dosing each day. Dogs are dosed daily by oral capsules in a suitable formulation at 50 mg/mL. Cephalic vein blood samples are collected with lithium heparin anticoagulant at 30 minutes, 1, 2, 4, 8 and 24 hours post dosing each day. All samples are processed to plasma and frozen for later analysis of each compound by LC/MS/MS. Plasma levels as a function of time are plotted to assess the AUC (ng*hr/mL).
The arginine complex of N-[3-(5-chloro-1H-pyrrolo[2,3-b]pyridine-3-carbonyl)-2,4-difluoro-phenyl]-4-trifluoromethyl-benzenesulfonamide P-1021 was analyzed in a number of dog PK studies following the above or similar protocols. These were done primarily at Bridge Laboratories, Beijing, China, with one study done at Seventh Wave Laboratories LLC, Chesterfield, Mo. Plasma samples were analyzed to determine the plasma concentration (PPD Development, Madison, Wis.) at each time point from which the Cmax and AUC∞ were determined. In some instances, the materials are combined in the solvents indicated, and the solvent is removed by evaporation, or by spray drying where indicated. In these tables, unless indicated otherwise, the dose is mg/dog, and the Cmax/dose ((ng/mL)/(mg/kg)) and the AUC∞/dose ((ng*hr/mL)/(mg/kg)) are calculated assuming a 10 kg weight for the dogs.
This study was done at Seventh Wave, containers were provided with 13.259 g, 39.776 g or 66.301 g of this formulation and suspended in 360 mL of 1.5% Polysorbate 20 vehicle and dosed by oral gavage.
N-[3-(5-chloro-1H-pyrrolo[2,3-b]pyridine-3-carbonyl)-2,4-difluoro-phenyl]-4-trifluoromethyl-benzenesulfonamide P-1021 was analyzed in a dog PK study wherein the arginine complex of N-[3-(5-cyano-1H-pyrrolo[2,3-b]pyridine-3-carbonyl)-2,4-difluoro-phenyl]-4-trifluoromethyl-benzenesulfonamide P-1092 was also assessed.

B-Raf V600E = B-Raf V600E (Homo sapiens, UniProt P15056, V600E); experiment: Kinase activity assay, B-Raf V600E; assay type: biochemical; conditions: read-out: activity toward kinase B-Raf V600E, IC50
Src = Src (Homo sapiens, UniProt P12931); experiment: Kinase activity assay, Src
Kdr = Kdr (Homo sapiens, UniProt P35968); experiment: Kinase activity assay, Kdr
C-Raf = C-Raf (Homo sapiens, UniProt P04049); experiment: Kinase activity assay, C-Raf
Flt1 = Flt1 (Homo sapiens, UniProt P17948); experiment: Kinase activity assay, Flt1
B-Raf = B-Raf (Homo sapiens, UniProt P15056); experiment: Kinase activity assay, B-Raf; assay type: biochemical; conditions: read-out: activity toward kinase B-Raf, IC50
Fms = Fms (Homo sapiens, UniProt P07333); experiment: Kinase activity assay, Fms
Kit = Kit (Homo sapiens, UniProt P10721); experiment: Kinase activity assay, Kit
[2] = Table 5B, forms of P-1021, dog, dose 150 mg/dog, 10 kg weight assumed
[3] = test articles are solid forms of P-1021, dog, oral, 100 mg/dog, calculated assuming a 10 kg weight
[4] = Table 7B, P-1021 arginine complex, dog, dose 200 mg/dog, 10 kg weight assumed
[5] = Table 7B, P-1021 arginine complex, dog, dose 400 mg/dog, 10 kg weight assumed
[6] = Table 8B, P-1021 arginine complex, dog, oral gavage, dose 249 mg/kg
[7] = Table 8B, P-1021 arginine complex, dog, oral gavage, dose 795 mg/kg
[8] = Table 8B, P-1021 arginine complex, dog, oral gavage, dose 965 mg/kg
[9] = Table 9B, dog, dose 200 mg/dog, 10 kg weight assumed
[10] = Table 9B, dog, dose 400 mg/dog, 10 kg weight assumed

Chain of B-Raf (P15056 whole entry): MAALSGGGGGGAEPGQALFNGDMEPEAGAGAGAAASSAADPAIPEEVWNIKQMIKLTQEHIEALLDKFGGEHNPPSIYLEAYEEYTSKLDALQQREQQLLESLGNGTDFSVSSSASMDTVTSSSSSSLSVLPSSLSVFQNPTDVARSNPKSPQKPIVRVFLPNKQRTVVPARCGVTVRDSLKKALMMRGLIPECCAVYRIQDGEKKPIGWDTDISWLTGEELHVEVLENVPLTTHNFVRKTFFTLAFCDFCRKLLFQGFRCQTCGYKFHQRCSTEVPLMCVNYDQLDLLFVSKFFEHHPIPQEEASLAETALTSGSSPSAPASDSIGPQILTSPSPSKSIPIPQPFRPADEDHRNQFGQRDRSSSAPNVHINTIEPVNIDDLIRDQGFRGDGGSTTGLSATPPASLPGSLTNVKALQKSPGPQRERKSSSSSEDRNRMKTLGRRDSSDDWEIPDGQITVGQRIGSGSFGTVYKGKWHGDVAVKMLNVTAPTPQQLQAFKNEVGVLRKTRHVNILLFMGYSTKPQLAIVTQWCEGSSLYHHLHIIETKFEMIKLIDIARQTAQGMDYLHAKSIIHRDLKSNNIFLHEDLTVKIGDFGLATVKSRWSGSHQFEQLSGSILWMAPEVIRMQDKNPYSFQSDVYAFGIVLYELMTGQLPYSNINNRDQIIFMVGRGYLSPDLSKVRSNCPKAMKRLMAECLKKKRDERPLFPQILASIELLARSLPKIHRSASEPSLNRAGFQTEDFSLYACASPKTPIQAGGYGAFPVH
Chain of Flt1 (P17948 27-1338): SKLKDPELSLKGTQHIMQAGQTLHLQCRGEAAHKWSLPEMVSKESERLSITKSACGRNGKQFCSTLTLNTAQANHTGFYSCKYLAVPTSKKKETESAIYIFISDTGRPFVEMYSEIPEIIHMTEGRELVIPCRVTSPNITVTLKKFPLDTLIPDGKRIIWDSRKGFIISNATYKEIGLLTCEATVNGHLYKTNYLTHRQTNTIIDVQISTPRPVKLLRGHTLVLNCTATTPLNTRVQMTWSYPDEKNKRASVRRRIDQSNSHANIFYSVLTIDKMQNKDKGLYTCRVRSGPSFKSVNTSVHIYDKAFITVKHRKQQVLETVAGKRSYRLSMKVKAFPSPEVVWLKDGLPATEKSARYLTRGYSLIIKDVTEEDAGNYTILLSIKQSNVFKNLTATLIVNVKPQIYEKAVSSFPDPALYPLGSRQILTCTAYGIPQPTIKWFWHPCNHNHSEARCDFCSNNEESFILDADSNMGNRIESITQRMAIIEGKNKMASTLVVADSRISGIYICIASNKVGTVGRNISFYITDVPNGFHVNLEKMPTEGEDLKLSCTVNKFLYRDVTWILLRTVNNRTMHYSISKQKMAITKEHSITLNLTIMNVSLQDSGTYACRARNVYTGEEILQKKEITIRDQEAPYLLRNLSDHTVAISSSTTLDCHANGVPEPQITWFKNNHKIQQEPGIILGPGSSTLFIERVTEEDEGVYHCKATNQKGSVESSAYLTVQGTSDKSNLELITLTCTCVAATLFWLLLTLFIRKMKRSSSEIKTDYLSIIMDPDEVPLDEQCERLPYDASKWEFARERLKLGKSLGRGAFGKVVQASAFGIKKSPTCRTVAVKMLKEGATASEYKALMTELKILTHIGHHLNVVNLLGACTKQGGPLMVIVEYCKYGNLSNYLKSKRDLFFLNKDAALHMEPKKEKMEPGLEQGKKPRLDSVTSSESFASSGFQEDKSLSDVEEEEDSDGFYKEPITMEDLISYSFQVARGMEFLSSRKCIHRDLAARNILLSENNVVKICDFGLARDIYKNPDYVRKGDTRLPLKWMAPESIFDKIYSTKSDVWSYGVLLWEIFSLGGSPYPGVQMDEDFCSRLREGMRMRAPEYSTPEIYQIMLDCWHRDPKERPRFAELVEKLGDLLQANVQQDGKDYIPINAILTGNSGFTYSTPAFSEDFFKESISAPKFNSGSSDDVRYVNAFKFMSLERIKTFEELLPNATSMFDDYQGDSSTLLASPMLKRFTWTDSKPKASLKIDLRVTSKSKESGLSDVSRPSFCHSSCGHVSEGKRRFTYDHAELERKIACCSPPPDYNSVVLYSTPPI
Chain of Kit (P10721 26-976): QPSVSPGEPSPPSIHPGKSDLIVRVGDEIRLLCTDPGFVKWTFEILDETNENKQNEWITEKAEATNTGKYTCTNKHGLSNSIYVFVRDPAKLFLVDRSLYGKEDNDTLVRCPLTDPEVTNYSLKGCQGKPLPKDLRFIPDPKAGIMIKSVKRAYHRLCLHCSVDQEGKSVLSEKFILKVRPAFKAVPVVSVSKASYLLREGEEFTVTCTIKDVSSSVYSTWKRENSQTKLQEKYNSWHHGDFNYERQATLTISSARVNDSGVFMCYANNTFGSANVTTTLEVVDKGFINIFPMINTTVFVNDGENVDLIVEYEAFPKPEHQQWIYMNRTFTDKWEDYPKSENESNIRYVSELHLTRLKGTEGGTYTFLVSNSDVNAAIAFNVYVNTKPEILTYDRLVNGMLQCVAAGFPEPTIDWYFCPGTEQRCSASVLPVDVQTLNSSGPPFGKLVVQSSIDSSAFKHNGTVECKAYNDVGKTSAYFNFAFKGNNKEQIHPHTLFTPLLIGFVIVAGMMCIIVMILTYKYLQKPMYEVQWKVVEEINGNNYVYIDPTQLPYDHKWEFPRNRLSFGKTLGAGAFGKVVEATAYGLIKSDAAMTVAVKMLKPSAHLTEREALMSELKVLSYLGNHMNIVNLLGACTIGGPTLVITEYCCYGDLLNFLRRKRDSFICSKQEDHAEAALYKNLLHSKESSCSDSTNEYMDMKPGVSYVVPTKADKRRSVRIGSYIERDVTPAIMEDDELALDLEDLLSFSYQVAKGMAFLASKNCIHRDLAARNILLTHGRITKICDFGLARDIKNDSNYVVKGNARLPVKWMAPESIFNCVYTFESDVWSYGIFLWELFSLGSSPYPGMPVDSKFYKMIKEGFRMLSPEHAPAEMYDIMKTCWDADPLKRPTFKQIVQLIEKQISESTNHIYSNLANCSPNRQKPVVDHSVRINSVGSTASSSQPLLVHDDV
Chain of Src (P12931 whole entry): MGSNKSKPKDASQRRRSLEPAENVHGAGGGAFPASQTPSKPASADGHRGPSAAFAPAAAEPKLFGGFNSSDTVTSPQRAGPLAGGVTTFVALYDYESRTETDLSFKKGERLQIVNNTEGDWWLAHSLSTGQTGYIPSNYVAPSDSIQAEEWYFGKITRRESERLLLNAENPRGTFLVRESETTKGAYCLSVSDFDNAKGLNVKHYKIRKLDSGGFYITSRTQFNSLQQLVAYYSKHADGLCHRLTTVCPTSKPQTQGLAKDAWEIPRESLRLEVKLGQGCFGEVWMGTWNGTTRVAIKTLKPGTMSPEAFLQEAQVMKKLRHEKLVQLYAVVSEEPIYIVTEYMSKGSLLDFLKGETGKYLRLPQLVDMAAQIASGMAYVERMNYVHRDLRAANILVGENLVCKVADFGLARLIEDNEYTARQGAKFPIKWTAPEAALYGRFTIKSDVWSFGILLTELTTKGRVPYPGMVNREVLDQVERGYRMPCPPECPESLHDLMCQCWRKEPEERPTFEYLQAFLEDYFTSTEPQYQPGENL
Chain of C-Raf (P04049 whole entry): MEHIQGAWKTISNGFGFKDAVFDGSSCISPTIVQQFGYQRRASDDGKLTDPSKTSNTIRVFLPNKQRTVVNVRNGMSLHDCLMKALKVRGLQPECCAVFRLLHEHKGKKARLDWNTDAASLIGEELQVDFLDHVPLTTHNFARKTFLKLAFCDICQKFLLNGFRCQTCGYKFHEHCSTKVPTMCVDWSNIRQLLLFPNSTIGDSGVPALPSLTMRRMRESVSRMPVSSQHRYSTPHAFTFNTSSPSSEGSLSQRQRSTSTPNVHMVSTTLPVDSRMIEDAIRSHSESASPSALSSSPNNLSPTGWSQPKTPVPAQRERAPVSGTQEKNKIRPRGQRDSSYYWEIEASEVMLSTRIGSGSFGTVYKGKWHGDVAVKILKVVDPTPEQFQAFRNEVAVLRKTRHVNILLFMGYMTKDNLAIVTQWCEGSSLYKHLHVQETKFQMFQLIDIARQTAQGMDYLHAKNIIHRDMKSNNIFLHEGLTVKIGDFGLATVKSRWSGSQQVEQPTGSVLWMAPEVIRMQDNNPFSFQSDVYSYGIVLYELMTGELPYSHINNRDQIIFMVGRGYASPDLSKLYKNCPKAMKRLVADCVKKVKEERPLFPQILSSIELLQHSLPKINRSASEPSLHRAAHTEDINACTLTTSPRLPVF
Chain of B-Raf V600E (P15056 whole entry V600E): as the sequence (P15056 whole entry) above, with V600E counted along it

## O=C(c1c(F)ccc(NS(=O)(=O)c2ccc(C(F)(F)F)cc2)c1F)c1c[nH]c2ncc(Cl)cc12 [Amorphous free base, N-[3-(5-chloro-1H-pyrrolo[2,3-b]pyridine-3-carbonyl)-2,4-difluoro-phenyl]-4-trifluoromethyl-benzenesulfonamide]
[1]; [2]
  AUC∞/dose: 482 (ng*hr/mL)/(mg/kg)
  Cmax/dose: 33 (ng/mL)/(mg/kg)

## O=C(c1c(F)ccc(NS(=O)(=O)c2ccc(C(F)(F)F)cc2)c1F)c1c[nH]c2ncc(Cl)cc12 [Free base, N-[3-(5-chloro-1H-pyrrolo[2,3-b]pyridine-3-carbonyl)-2,4-difluoro-phenyl]-4-trifluoromethyl-benzenesulfonamide]
[1]; [2]
  AUC∞/dose: 5,270 (ng*hr/mL)/(mg/kg)
  Cmax/dose: 482 (ng/mL)/(mg/kg)
[1]; [3]
  AUC∞/dose: 8,031 (ng*hr/mL)/(mg/kg)
  Cmax/dose: 581.3 (ng/mL)/(mg/kg)

## O=C(c1c(F)ccc(NS(=O)(=O)c2ccc(C(F)(F)F)cc2)c1F)c1c[nH]c2ncc(Cl)cc12 [Mesylate, N-[3-(5-chloro-1H-pyrrolo[2,3-b]pyridine-3-carbonyl)-2,4-difluoro-phenyl]-4-trifluoromethyl-benzenesulfonamide]
[1]; [2]
  AUC∞/dose: 2,849 (ng*hr/mL)/(mg/kg)
  Cmax/dose: 116 (ng/mL)/(mg/kg)

## O=C(c1c(F)ccc(NS(=O)(=O)c2ccc(C(F)(F)F)cc2)c1F)c1c[nH]c2ncc(Cl)cc12 [P-1021 arginine complex, N-[3-(5-chloro-1H-pyrrolo[2,3-b]pyridine-3-carbonyl)-2,4-difluoro-phenyl]-4-trifluoromethyl-benzenesulfonamide]
[1]; P-1021 arginine complex dosed at 400 mg per dog (Table 6B, Table 7B), typical value
  AUC/dose: greater than 12,000 (ng*hr/mL)/(mg/kg)
[1]; [2]
  AUC∞/dose: 34,693 (ng*hr/mL)/(mg/kg)
  Cmax/dose: 810 (ng/mL)/(mg/kg)
[1]; [4]
  AUC∞/dose: 22,480 (ng*hr/mL)/(mg/kg)
  Cmax/dose: 960 (ng/mL)/(mg/kg)
[1]; [5]
  AUC∞/dose: 12,120 (ng*hr/mL)/(mg/kg)
  Cmax/dose: 455 (ng/mL)/(mg/kg)
[1]; [6]
  AUC∞/dose: 11,247 (ng*hr/mL)/(mg/kg)
  Cmax/dose: 208 (ng/mL)/(mg/kg)
[1]; [7]
  AUC∞/dose: 7,457 (ng*hr/mL)/(mg/kg)
  Cmax/dose: 107 (ng/mL)/(mg/kg)
[1]; [8]
  AUC∞/dose: 3,883 (ng*hr/mL)/(mg/kg)
  Cmax/dose: 178 (ng/mL)/(mg/kg)
[1]; [3]
  AUC∞/dose: 16,850 (ng*hr/mL)/(mg/kg)
  Cmax/dose: 830.5 (ng/mL)/(mg/kg)

## O=C(c1c(F)ccc(NS(=O)(=O)c2ccc(C(F)(F)F)cc2)c1F)c1c[nH]c2ncc(Cl)cc12 [P-1021, N-[3-(5-chloro-1H-pyrrolo[2,3-b]pyridine-3-carbonyl)-2,4-difluoro-phenyl]-4-trifluoromethyl-benzenesulfonamide]
[1]; dog PK studies, arginine complex
  Cmax and AUC / exposure, comparison in words: favorable Cmax and AUC compared to free base and other formulations

## N#Cc1cnc2[nH]cc(C(=O)c3c(F)ccc(NS(=O)(=O)c4ccc(C(F)(F)F)cc4)c3F)c2c1 [P-1092 arginine complex, N-[3-(5-cyano-1H-pyrrolo[2,3-b]pyridine-3-carbonyl)-2,4-difluoro-phenyl]-4-trifluoromethyl-benzenesulfonamide]
[1]; [9]
  AUC∞/dose: 11,720 (ng*hr/mL)/(mg/kg)
  Cmax/dose: 550 (ng/mL)/(mg/kg)
[1]; [10]
  AUC∞/dose: 12,580 (ng*hr/mL)/(mg/kg)
  Cmax/dose: 617.5 (ng/mL)/(mg/kg)

## CCCS(=O)(=O)Nc1ccc(F)c(C(O)c2c[nH]c3ncc(-c4ccc(C(=O)NCC)nc4)cc23)c1F (centres unmarked) [P-2150, 5-(3-{[2,6-Difluoro-3-(propane-1-sulfonylamino)-phenyl]-hydroxy-methyl}-1H-pyrrolo[2,3-b]pyridin-5-yl)-pyridine-2-carboxylic acid ethylamide]
B-Raf V600E
  IC50: ≤ 10 µM
Src
  IC50: ≤ 10 µM
Kdr
  IC50: ≤ 10 µM
C-Raf
  IC50: ≤ 10 µM
Flt1
  IC50: ≤ 10 µM
B-Raf
  IC50: ≤ 10 µM

## CCCS(=O)(=O)Nc1ccc(F)c(C(=O)c2c[nH]c3ncc(-c4cncnc4)cc23)c1F [P-2162, Propane-1-sulfonic acid [2,4-difluoro-3-(5-pyrimidin-5-yl-1H-pyrrolo[2,3-b]pyridine-3-carbonyl)-phenyl]-amide]
B-Raf V600E
  IC50: ≤ 10 µM
Src
  IC50: ≤ 10 µM
Kdr
  IC50: ≤ 10 µM
C-Raf
  IC50: ≤ 10 µM
Flt1
  IC50: ≤ 10 µM
B-Raf
  IC50: ≤ 10 µM

## CCCS(=O)(=O)Nc1ccc(F)c(C(=O)c2c[nH]c3ncc(C(=O)NC)cc23)c1F [P-2200, 3-[2,6-Difluoro-3-(propane-1-sulfonylamino)-benzoyl]-1H-pyrrolo[2,3-b]pyridine-5-carboxylic acid methylamide]
B-Raf V600E
  IC50: ≤ 10 µM
Kdr
  IC50: ≤ 10 µM
Fms
  IC50: ≤ 10 µM
C-Raf
  IC50: ≤ 10 µM
Flt1
  IC50: ≤ 10 µM
Kit
  IC50: ≤ 10 µM
B-Raf
  IC50: ≤ 10 µM

## CCCS(=O)(=O)Nc1ccc(F)c(C(=O)c2c[nH]c3ncc(C(=O)NC4CC4)cc23)c1F [P-2201, 3-[2,6-Difluoro-3-(propane-1-sulfonylamino)-benzoyl]-1H-pyrrolo[2,3-b]pyridine-5-carboxylic acid cyclopropylamide]
B-Raf V600E
  IC50: ≤ 10 µM
Kdr
  IC50: ≤ 10 µM
Fms
  IC50: ≤ 10 µM
C-Raf
  IC50: ≤ 10 µM
Flt1
  IC50: ≤ 10 µM
Kit
  IC50: ≤ 10 µM
B-Raf
  IC50: ≤ 10 µM

## CCCS(=O)(=O)Nc1ccc(F)c(C(=O)c2c[nH]c3ncc(-c4cnc(OCCCN(C)C)nc4)cc23)c1F [P-2203, Propane-1-sulfonic acid (3-{5-[2-(3-dimethylamino-propoxy)-pyrimidin-5-yl]-1H-pyrrolo[2,3-b]pyridine-3-carbonyl}-2,4-difluoro-phenyl)-amide]
B-Raf V600E
  IC50: ≤ 10 µM
Kdr
  IC50: ≤ 10 µM
Fms
  IC50: ≤ 10 µM
Flt1
  IC50: ≤ 10 µM
Kit
  IC50: ≤ 10 µM
B-Raf
  IC50: ≤ 10 µM

## CCCS(=O)(=O)Nc1ccc(F)c(C(=O)c2c[nH]c3ncc(C(=O)NCCO)cc23)c1F [P-2217, 3-[2,6-Difluoro-3-(propane-1-sulfonylamino)-benzoyl]-1H-pyrrolo[2,3-b]pyridine-5-carboxylic acid (2-hydroxy-ethyl)-amide]
B-Raf V600E
  IC50: ≤ 10 µM
Src
  IC50: ≤ 10 µM
Kdr
  IC50: ≤ 10 µM
C-Raf
  IC50: ≤ 10 µM
Flt1
  IC50: ≤ 10 µM
B-Raf
  IC50: ≤ 10 µM

## CCCS(=O)(=O)Nc1cccc(C(=O)c2c[nH]c3ncc(C(=O)OC)cc23)c1F [P-2404, 3-[2-Fluoro-3-(propane-1-sulfonylamino)-benzoyl]-1H-pyrrolo[2,3-b]pyridine-5-carboxylic acid methyl ester]
B-Raf V600E
  IC50: ≤ 10 µM
Kdr
  IC50: ≤ 10 µM
Fms
  IC50: ≤ 10 µM
C-Raf
  IC50: ≤ 10 µM
Flt1
  IC50: ≤ 10 µM
B-Raf
  IC50: ≤ 10 µM

## O=C(c1c(F)ccc(NS(=O)(=O)c2ccc(C(F)(F)F)cc2)c1F)c1c[nH]c2ncc(Cl)cc12 [Sulfate, N-[3-(5-chloro-1H-pyrrolo[2,3-b]pyridine-3-carbonyl)-2,4-difluoro-phenyl]-4-trifluoromethyl-benzenesulfonamide]
[1]; [3]
  AUC∞/dose: 5,067 (ng*hr/mL)/(mg/kg)
  Cmax/dose: 181.5 (ng/mL)/(mg/kg)
